The target of experiment [1] is T1, β2-adrenergic receptor (Homo sapiens, UniProt P07550).
T1 construct: expressed in transfected cells; host or cells: C2C12 myoblasts (retroviral transduction)
Type of experiment: cell-based. As to conditions: for outcome in high-throughput screen of kinase/phosphatase inhibitor library: library at 3 uM, 384-well plate, duplicate.

The target in experiment [2] is T1, β2-adrenergic receptor. Format: cell-based. As to conditions: compound applied 30 min before stimulation with 10 uM isoproterenol. As to the method:
Assays and cell preparation. […] LysoTracker Red and Texas Red-labeled transferrin were purchased from Molecular Probes. The Kinase/Phosphatase Inhibitor Library was purchased from BIOMOL, and the Mechanistic and Diversity Compound Libraries were provided by the Developmental Therapeutics Program of the National Cancer Institute. Cells were plated and grown to confluency in 96-well white tissue culture dishes (Corning Costar), in 100 μl of growth media. Dose-response curves were generated by adding the respective ligand to the media and incubating for 2 h at 37° C. […] At the end of the described incubation time, Gal-Screen reagent (Buffer B formulation, Applied Biosystems) was used to assay for β-galactosidase activity, according to manufacturer's protocol; media was aspirated from the plate, and 50 μl (or 25 μl for 384-well plates, without prior media aspiration) of Gal-Screen substrate diluted in lysis buffer was added to each well.

The target in experiment [3] is Angiotensin II receptor 1a (AT1a) (Mus musculus, UniProt P29754). As to conditions: 2 hr. From the text: Plasmids. […] Other FYVE domains were generated similarly by RT-PCR^˜. […] To generate a β2AR-eYFP-α construct, the eYFP-α fragment was subcloned into the β2AR-ωplasmid using Xhol and HindIII. The Angiotensin receptor 1a was derived by RT-PCR from C57/BI6 mouse brain RNA using primers for the entire coding sequence, minus the stop codon; it was cloned N-terminally to eYFP-α or ω with MfeI and XhoI. […] Finally, to generate fusion proteins with β-arrestin, the full coding sequence of human β-arrestin B2 was PCR amplified from a cDNA clone and inserted into the Mfel-XhoI sites of the ω and eYFP-α vectors.
Assays and cell preparation. […] LysoTracker Red and Texas Red-labeled transferrin were purchased from Molecular Probes. The Kinase/Phosphatase Inhibitor Library was purchased from BIOMOL, and the Mechanistic and Diversity Compound Libraries were provided by the Developmental Therapeutics Program of the National Cancer Institute. Cells were plated and grown to confluency in 96-well white tissue culture dishes (Corning Costar), in 100 μl of growth media. Dose-response curves were generated by adding the respective ligand to the media and incubating for 2 h at 37° C. […]

T1 sequence (P07550 whole entry, species assumed): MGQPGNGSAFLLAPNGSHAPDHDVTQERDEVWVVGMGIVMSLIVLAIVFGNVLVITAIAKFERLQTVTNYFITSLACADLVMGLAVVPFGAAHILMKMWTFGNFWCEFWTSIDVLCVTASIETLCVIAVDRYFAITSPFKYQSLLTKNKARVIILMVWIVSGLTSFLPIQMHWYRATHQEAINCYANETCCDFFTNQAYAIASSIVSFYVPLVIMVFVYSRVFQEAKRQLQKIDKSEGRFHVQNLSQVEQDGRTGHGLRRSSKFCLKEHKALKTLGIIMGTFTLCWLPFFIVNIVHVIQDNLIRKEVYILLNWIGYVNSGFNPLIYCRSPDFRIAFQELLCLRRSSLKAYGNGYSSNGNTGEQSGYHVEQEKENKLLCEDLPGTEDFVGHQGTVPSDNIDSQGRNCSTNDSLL

As to `O=CN/C=C/c1cc(O)ccc1O` [erbstatin], on β2-adrenergic receptor [1], the “outcome in high-throughput screen of kinase/phosphatase inhibitor library” value is listed as “inhibitors of internalization”.

With `CN[C@@H]1C[C@H]2O[C@@](C)([C@@H]1OC)n1c3ccccc3c3c4c(c5c6ccccc6n2c5c31)C(=O)NC4` [staurosporine], at β2-adrenergic receptor [1], the “outcome in high-throughput screen of kinase/phosphatase inhibitor library” value was “inhibitors of internalization”.

Regarding `COC[C@H]1OC(=O)c2coc3c2[C@@]1(C)C1=C(C3=O)[C@@H]2CCC(=O)[C@@]2(C)C[C@H]1OC(C)=O` [wortmannin], the “inhibition, internalization assay” value against β2-adrenergic receptor [1] is reported as “approximately 90%”. Further, the inhibition of activation entry at β2-adrenergic receptor [2] is listed as “approximately 50%”.

Turning to angiotensin II, in experiment [3], the “increase in activity, internalization assay” value is 4 fold and the “increase in enzyme activity, arrestin-binding activation assay” value is reported as 8.5 fold.

Values taken from patent publication US8426138B2 (priority 2006, dated 2013).
